These results are taken from patent publication US20130040331A1, “LABEL-FREE METHODS RELATED TO hERG POTASSIUM ION [sequence]” (CORNING INCORPORATED, priority 2009, published 2013).

SMILES strings stand for the structures.

One data set deals with hERG channel (Homo sapiens, UniProt Q12809). The data set can be described thus: Automated patch clamp recording of hERG current using IonWorks, CHO-hERG cells. Particulars: for effect on hERG tail current: 50 μM, tail current at return to −35 mV; for effect on hERG current: final compound concentration 50 μM. The protocol:
CHO—K1 cells stably expressing hERG channel (CHO-hERG) were cultured in T175 flask till about 70% confluent. Cells were washed twice with PBS, then 2.5 ml 0.25% Trypsin/EDTA was mixed with 2.5 ml PBS and added to the T175 flask. Cells were incubated about 2 minutes with the diluted Trypsin/EDTA solution at 37° C., then were continuously incubated about 3 minutes at room temperature. 20 ml fresh medium were added to suspend the cells and transfer to a 50 ml tube. Cells were centrifuged down at 750 rpm for 5 minutes. The extra medium was removed and cells were resuspended in 6 ml External Buffer (137 mM NaCl, 4 mM KCl, 1.8 mM CaCl2, 1 mM MgCl2, 10 mM HEPES, 10 mM glucose, pH 7.4). Then cells were centrifuged again at 450 rpm for another 5 minutes. Finally cells were resuspended in 4 ml the External Buffer, cell number was counted using a hemacytometer. Cell suspension was diluted to 2.5×10^6 cells/ml with the External Buffer. 4 ml of the resuspended cells were added to the cell reservoir in IonWorks. The Internal solution used contains: 40 mM KCl, 100 mM K-Gluconate, 3.2 mM MgCl2, 2 mM CaCl2, 5 mM HEPES, pH 7.25 (adjusted with KOH). 5 mg Amphotericin B from 200 ul DMSO stock was added to 65 ml the Internal solution and mixed well to achieve electrical access to the interior of cells on the patch plate.
Compounds were prepared from 10 mM DMSO stock and diluted in the External Buffer to make 3× compound solution. […] of the 3× compound solution was transferred to a 384 well plate in Row A, B, C and D. PD11857 (Sigma-Aldrich), a reported hERG channel activator was used as activator positive control (final concentration 30 and 50 μM). hERG blocker dofetilide was used as blocker positive control (final concentration 100 nM). The final DMSO concentration in the IonWorks Quattro PatchPlate PPC plate (Cat#9000-0902, Molecular Devices) was 0.5%. Final compound concentration was 50 μM. Each compound was added to four wells of one PPC plate.
hERG currents were recorded on IonWorks Quattro (Molecular Devices). To record hERG current, the cells were clamped at −80 mV initially, then followed by a 5-s depolarization at +40 mV to activate the channels. Tail currents were measured during an ensuing return to −35 mV. Data analysis were done using IonWorks Quttro® System Software version 2.0.4.4. Data from wells with seal resistance less than 50 MΩ or hERG tail currents less than 0.1 nA were filtered out. […] Inhibitor hits were selected if hERG tail currents ratio (post/pre-compound) is less than mean-2SD of the average DMSO control.
To record hERG current, the cells were clamped at −80 mV initially, then followed by a 5-s depolarization at +40 mV to activate the channels (phase a in FIG. 10A). Tail currents were measured during an ensuing return to −35 mV for 2 seconds (phase b in FIG. 10A). Final holding potential at −70 mV (phase c in FIG. 10B).
In general terms: In patch-clamp work, channel activity is measured electrically.

The test system of data set [1] is hERG channel or hERG-associated signaling complex. The data set can be described thus: Classification of hERG modulators by label-free biosensor profiles across three cell lines plus mallotoxin modulation index. The class given is cell-based, human. From the text:
The traditional hERG ion channel assay involves assaying ion flux such as Rb^+ flux using ion absorption assays, or assaying hERG currents directly using patch clamping methods. Traditionally, a molecule which causes increase in Rb^+ flux and/or hERG currents is referred to a hERG activator, while a molecule which inhibits Rb^+ flux and/or hERG currents is referred to a hERG inhibitor. […] These hERG activators may or may not result in detectable biosensor signals in cells, using label-free biosensor cellular assays. A hERG activator that results in a detectable biosensor signal in a hERG expressing cell via hERG or hERG signaling complex is also referred to a label-free biosensor hERG activator.
Disclosed are methods of classifying a molecule for modulating hERG activity, comprising the steps: a. incubating a molecule individually with at least three different types of cells consisting of a native cell endogenously expressing hERG, an engineered cell stably expressing hERG and its parental cell without expressing hERG, and b. monitoring the molecule induced cellular response on each cell type with a label-free biosensor cellular assay,
Also disclosed are methods, further comprising as steps c) incubating a label-free biosensor hERG activator with each cell type in the presence of the molecule, d. monitoring the label-free biosensor hERG activator induced cellular response on each cell type in the presence of the molecule, e. generating a biosensor modulation index of the molecule against the label-free biosensor hERG activator induced biosensor signals in the two hERG expressing cell types.
The DMR modulation index was generated by normalizing the mallotoxin DMR signal in either cell line in the presence of compound […] to its corresponding DMR signal in the absence of the compound, and the percentage of modulation was based on the amplitude of the mallotoxin DMR signal at a specific time (−18 min after stimulation for HEK-hERG cells, and ˜50 min after stimulation for HT29 cells, respectively). Mallotoxin is known to display polypharmacology. It is also known to be a protein kinase C (PKC) inhibitor; and PKC is a downstream signaling component of hERG activation. Thus, it would be difficult or almost impossible to assign the mode(s) of action of mallotoxin to be a hERG activator when either cell line is individually assayed with the label-free biosensor (i.e., Epic® system). […] However, combining the primary DMR profiles of a compound across the three cell lines tested with the modulation index of the compound against the mallotoxin responses in both HT29 and […] cells can correctly identify whether the compound is a hERG activator or not. The results shown in FIG. 1 indicate that indeed mallotoxin is a hERG activator; and the activation of hERG can result in detectable biosensor responses in the two hERG expressing cell lines.
In general terms: hERG is a cardiac potassium channel; its block is linked to QT prolongation.

Sequence of hERG channel (Q12809 whole entry): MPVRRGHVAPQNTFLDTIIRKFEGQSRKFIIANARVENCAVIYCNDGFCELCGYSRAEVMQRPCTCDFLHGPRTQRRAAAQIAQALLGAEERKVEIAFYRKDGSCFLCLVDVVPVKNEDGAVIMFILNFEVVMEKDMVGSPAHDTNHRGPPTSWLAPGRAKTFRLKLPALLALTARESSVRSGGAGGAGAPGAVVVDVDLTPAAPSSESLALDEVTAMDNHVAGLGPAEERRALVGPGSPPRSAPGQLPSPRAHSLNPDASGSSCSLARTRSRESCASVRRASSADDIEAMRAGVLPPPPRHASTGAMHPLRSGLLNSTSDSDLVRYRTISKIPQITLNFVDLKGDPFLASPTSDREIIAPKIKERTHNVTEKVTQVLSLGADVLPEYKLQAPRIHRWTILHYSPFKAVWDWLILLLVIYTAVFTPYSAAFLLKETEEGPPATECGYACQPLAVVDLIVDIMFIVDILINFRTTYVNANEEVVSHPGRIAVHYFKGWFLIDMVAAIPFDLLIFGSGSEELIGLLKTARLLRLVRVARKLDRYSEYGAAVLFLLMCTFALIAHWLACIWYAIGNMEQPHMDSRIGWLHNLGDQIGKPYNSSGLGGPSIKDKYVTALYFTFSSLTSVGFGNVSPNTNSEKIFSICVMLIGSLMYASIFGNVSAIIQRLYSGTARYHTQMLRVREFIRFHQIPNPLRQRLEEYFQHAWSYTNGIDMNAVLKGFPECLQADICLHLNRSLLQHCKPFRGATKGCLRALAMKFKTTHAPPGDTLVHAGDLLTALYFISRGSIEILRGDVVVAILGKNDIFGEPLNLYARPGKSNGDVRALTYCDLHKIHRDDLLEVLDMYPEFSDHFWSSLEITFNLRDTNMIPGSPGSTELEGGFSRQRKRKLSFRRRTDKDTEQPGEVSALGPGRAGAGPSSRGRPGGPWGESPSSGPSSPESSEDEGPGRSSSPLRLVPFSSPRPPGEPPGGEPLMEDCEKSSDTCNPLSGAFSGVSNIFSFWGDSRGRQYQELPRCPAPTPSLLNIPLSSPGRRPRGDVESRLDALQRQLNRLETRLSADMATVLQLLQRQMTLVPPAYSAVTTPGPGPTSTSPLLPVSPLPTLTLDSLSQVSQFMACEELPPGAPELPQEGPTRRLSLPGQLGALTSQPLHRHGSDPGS

With `O=C(O)c1ccccc1Nc1cccc(C(F)(F)F)c1` [flufenamic acid], on hERG channel, the “effect on hERG tail current” value is “significantly increased” and the “effect on hERG current” value is “weak hERG current activator”. For the same compound, the “hERG pathway activity class by label-free biosensor” value in data set [1] is given as “hERG pathway activator”.

Turning to `CC(=O)c1c(O)c(C)c(O)c(Cc2c(O)c3c(c(C(=O)/C=C/c4ccccc4)c2O)OC(C)(C)C=C3)c1O` [mallotoxin], at hERG channel, the “effect on hERG tail current” value is on record as “significantly increases” and the “effect on hERG current” value is reported as “significantly increases”. The “effect on hERG current” value at hERG channel (listed as Mallotoxin) is listed as “strong hERG current activator”. Further, the “hERG pathway activity class by label-free biosensor” value in data set [1] is “label-free hERG pathway activator”.
